Experimental findings from ChEMBL document CHEMBL1149404, “Design and synthesis of substituted phenylpropanoic acid derivatives as human peroxisome proliferator-activated receptor alpha/delta dual agonists” (Bioorg Med Chem Lett, 2006) are described below.

A value given as a limit tells only on which side of the number the result lay.

Experiment [1] addresses T1, Peroxisome proliferator-activated receptor gamma (Homo sapiens, UniProt P37231).
T1 sequence (P37231 whole entry): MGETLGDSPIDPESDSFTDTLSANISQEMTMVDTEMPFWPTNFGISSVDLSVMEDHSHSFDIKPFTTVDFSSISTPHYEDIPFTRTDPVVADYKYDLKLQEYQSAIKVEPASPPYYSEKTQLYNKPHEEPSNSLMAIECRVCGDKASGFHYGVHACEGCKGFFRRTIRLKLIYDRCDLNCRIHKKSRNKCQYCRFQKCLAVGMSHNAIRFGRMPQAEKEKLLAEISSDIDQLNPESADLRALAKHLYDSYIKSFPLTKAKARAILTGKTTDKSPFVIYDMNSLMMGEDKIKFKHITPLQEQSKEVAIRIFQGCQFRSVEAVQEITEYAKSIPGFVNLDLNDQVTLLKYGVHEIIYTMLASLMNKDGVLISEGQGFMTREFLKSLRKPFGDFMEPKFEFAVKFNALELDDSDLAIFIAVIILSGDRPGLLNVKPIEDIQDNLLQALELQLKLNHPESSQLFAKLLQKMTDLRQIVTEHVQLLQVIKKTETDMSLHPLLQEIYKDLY
Kind of experiment: Agonist activity at PPARgamma transfected in HEK293 cells. It counts as functional, cell-based.

Experiment [2] deals with T2, Peroxisome proliferator-activated receptor alpha (Homo sapiens, UniProt Q07869).
T2 sequence (Q07869 whole entry): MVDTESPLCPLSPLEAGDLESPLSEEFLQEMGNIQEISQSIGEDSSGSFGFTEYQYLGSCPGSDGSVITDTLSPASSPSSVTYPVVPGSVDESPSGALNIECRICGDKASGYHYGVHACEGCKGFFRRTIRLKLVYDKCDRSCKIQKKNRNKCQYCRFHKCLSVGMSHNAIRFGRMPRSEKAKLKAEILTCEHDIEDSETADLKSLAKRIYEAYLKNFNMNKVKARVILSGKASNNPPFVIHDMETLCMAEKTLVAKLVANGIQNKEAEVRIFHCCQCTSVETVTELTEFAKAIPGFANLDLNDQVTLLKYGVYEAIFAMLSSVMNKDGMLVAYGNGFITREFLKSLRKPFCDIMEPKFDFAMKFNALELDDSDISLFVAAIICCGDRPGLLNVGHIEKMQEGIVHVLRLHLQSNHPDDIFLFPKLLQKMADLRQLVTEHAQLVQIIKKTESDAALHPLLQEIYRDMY
Briefly: Agonist activity at PPARalpha transfected in HEK293 cells. It counts as functional, cell-based.

In experiment [3] the target is T3, Peroxisome proliferator-activated receptor delta (Homo sapiens, UniProt Q03181).
T3 sequence (Q03181 whole entry): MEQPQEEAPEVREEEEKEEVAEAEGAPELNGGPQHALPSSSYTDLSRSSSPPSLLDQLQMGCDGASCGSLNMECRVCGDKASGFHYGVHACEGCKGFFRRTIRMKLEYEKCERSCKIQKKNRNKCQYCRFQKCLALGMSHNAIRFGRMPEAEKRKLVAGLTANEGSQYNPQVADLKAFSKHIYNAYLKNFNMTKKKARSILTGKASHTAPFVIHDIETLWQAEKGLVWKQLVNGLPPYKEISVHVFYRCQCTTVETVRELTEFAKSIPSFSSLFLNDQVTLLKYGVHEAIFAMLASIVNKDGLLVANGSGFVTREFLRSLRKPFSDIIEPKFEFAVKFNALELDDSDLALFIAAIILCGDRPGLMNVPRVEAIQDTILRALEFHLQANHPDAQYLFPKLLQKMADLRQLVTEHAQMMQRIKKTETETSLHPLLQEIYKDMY
Kind of experiment: Agonist activity at PPARdelta transfected in HEK293 cells. In kind it is functional, cell-based.

The target in experiment [4] is T2, Peroxisome proliferator-activated receptor alpha. Briefly: Agonist activity at PPARalpha transfected in HEK293 cells at 1 uM. In kind it is functional, cell-based.
Experiment [5] concerns the target T3, Peroxisome proliferator-activated receptor delta. Kind of experiment: Agonist activity at PPARdelta transfected in HEK293 cells at 1 uM. It counts as functional, cell-based.
The target of experiment [6] is T1, Peroxisome proliferator-activated receptor gamma. Briefly: Agonist activity at PPARgamma transfected in HEK293 cells at 1 uM. It counts as functional, cell-based.
Experiment [7] concerns the target T4, Peroxisome proliferator-activated receptor alpha (Mus musculus, UniProt P23204).
T4 sequence (P23204 whole entry): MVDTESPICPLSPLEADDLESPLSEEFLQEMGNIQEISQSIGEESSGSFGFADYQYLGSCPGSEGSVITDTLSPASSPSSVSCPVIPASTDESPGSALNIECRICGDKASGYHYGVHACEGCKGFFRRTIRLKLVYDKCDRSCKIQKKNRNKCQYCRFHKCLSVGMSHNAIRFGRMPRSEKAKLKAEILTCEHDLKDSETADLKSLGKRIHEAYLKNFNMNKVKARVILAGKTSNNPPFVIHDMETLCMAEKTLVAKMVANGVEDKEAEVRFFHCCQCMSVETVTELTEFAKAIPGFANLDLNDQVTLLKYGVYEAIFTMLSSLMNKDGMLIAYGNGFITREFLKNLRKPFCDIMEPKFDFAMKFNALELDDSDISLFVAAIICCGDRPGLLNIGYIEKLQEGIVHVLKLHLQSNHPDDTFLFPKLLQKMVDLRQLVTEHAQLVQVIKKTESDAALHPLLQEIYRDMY
Kind of experiment: Agonist activity at mouse PPARalpha transfected in HEK293 cells. In kind it is functional, cell-based.

For experiment [8], the target named is T5, Peroxisome proliferator-activated receptor delta (Mus musculus, UniProt P35396).
T5 sequence (P35396 whole entry): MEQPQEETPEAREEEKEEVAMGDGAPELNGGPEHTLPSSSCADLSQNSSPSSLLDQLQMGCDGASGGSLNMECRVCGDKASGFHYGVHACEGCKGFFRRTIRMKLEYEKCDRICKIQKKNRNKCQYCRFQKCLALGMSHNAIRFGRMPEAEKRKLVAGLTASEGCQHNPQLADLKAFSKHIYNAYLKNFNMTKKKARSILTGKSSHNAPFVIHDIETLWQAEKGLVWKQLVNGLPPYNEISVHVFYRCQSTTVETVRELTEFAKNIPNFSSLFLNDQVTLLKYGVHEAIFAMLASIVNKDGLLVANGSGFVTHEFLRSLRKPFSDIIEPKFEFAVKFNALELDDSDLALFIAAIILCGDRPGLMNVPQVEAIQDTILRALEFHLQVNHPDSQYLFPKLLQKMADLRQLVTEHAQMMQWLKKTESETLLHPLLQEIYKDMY
Kind of experiment: Agonist activity at mouse PPARdelta transfected in HEK293 cells. It counts as functional, cell-based.

Experiment [9] addresses Peroxisome proliferator-activated receptor alpha (Homo sapiens, UniProt Q07869, I272F). Briefly: Agonist activity at human PPARalpha containing mutant I272F domain transfected in HEK293 cells.

Sequence of Peroxisome proliferator-activated receptor alpha (Homo sapiens, UniProt Q07869, I272F) (Q07869 whole entry I272F, the tested form may be a part): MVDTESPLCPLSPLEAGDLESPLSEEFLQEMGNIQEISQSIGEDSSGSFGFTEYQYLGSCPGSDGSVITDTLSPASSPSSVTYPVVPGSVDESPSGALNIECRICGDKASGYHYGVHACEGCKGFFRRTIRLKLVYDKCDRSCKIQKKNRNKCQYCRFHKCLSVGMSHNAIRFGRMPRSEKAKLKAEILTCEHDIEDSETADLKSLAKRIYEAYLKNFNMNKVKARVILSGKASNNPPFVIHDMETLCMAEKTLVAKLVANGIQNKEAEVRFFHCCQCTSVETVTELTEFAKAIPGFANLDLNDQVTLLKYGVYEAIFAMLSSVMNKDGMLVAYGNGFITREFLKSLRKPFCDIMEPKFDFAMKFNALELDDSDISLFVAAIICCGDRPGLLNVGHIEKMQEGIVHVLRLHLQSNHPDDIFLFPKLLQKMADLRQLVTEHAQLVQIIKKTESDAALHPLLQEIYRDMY

What is called EC50 is the concentration giving half of the maximal effect. Read a low EC50 as greater potency. In the case of `CCC(Cc1ccc(OC)c(CNC(=O)c2ccc(C(F)(F)F)cc2)c1)C(=O)O` (stereo not drawn), the EC50 came out at 2000 nM in experiment [1], 10 nM in experiment [2] and 130 nM in experiment [3].
As to `CCC(Cc1ccc(F)c(C(=O)NCc2ccc(C(F)(F)F)cc2)c1)C(=O)O` (stereo not drawn), the EC50 result in [4], in [5] and in experiment [6] was “Not Active” throughout.
Take `CCC(Cc1ccc(OC)c(C(=O)NCc2ccc(C(F)(F)F)c(F)c2)c1)C(=O)O` (stereo not drawn): the concentration giving a half-maximal response (EC50) in experiment [1] was found to be 1600 nM; in experiment [2] it was 25 nM; in experiment [3], 500 nM.
With `CCC(Cc1ccc(OC)c(C(=O)NCc2ccc(C(F)(F)F)cc2F)c1)C(=O)O` (stereo not drawn), the EC50 in [1] turned out to be 500 nM; in experiment [2], 20 nM; in experiment [3], 1000 nM.
`CC[C@@H](Cc1ccc(OC)c(CNC(=O)c2ccc(C(F)(F)F)c(F)c2)c1)C(=O)O`: the EC50 came out at 1000 nM in experiment [7]; 130 nM in experiment [8]; 10 nM in [2]; 40 nM in experiment [3]; 630 nM in experiment [9].
With `CC[C@H](Cc1ccc(OC)c(CNC(=O)c2ccc(C(F)(F)F)c(F)c2)c1)C(=O)O`, the EC50 was > 10000 nM in experiment [1], 180 nM in experiment [2] and 700 nM in experiment [3].
Regarding `CCC(Cc1ccc(OC)c(CNC(=O)c2ccc(F)c(C(F)(F)F)c2)c1)C(=O)O` (stereo not drawn), the EC50 in experiment [1] was > 10000 nM.
For `CCC(Cc1ccc(OC)c(C(=O)NCc2ccc(C(F)(F)F)cc2)c1)C(=O)O` (racemic), the EC50 was 70 nM in experiment [2] and 700 nM in [3].
